Experiments:
B6C3F1 female mice = assay: VCD-induced premature ovarian failure animal model; conditions: VCD 160 mg/kg/day i.p. five times a week, 2 weeks
Method: B6C3F1 female mice at the age of 3 weeks (10 g to 12 g) from the same date of birth (DOB) as an experimental animal were purchased from the Central Lab Animal Inc., were adapted to a laboratory environment while sufficiently fed feed and water, and then used in an experiment. The laboratory environment was maintained at a temperature of 22±2° C. and a 12-hour day/12-hour night cycle was maintained until the experiment was completed. […]
Body weight changes were observed every week, based on the body weight measured on the start day of the experiment (day 1). […] One ovary was removed and the ovarian weight was measured and an ovarian weight index was calculated as a ratio of the measured ovarian weight with respect to the body weight immediately before sacrifice.

CHO-K1 cells = assay: Cell morphology observation, VCD-induced cell damage; format: cell-based, Chinese hamster; conditions: 1.5 mM VCD, 24 hours
Method: Through cell morphological changes, it was confirmed whether the Ulmi cortex extract protected CHO-K1 cells from cell damage induced by VCD.
First, cells were distributed into a 96-well plate at a density of 1×10^4 cells/well, and the cells were cultured until the next day, followed by serum starvation for 4 hours. Subsequently, the cells were pre-treated with 300 μg/ml of the Ulmi cortex extract for 4 hours and treated with 1.5 mM VCD, and then incubated at 37° C. under 5% CO2 for 24 hours, and the cells were observed using an optical microscope (Nikon, Japan).

PARP and caspase-3 = assay: Western blot of apoptosis proteins in CHO-K1 cells with VCD-induced ovotoxicity; format: cell-based, Chinese hamster; conditions: 1.5 mM VCD; compared to a control
Method: As confirmed in Example 4, when CHO-K1 cells were treated with VCD, apoptosis occurred. To examine an effect of pretreatment with the Ulmi cortex extract (300 μg/ml), proteins associated with apoptosis, i.e., poly(ADP-ribosyl) polymerase (PARP) and caspase-3, were identified through western blot analysis.
As described in Example 5-1, a protein sample was collected from CHO-K1 cells pretreated with 300 μg/ml of the Ulmi cortex extract for […] and treated with 1.5 mM VCD. For this, the cells treated with VCD were washed three times with PBS, RIPA buffer was added thereto, and the resulting cells were allowed to react at 4° C. for 30 minutes and then centrifuged at 12,000 rpm for 30 minutes to collect a supernatant, and proteins were extracted therefrom. Subsequently, the same amount of the proteins were separated on a sodium dodecyl sulfate-polyacrylamide gel electrophoresis (SDS-PAGE), and then transferred to a PVDF membrane. To block non-specific binding, the membrane was treated with a blocking buffer (5% skim milk) for 1 hour, and washed with a PBST solution containing 0.1% Tween 20. Thereafter, the membrane was allowed to react with primary antibodies against PARP and caspase-3 at 4° C. overnight. […]

C1CC2OC2CC1C1CO1 (centres unmarked) [VCD, 4-vinylcyclohexene diepoxide]
ovarian weight index, negative control (VCD) vs normal group (B6C3F1 female mice): significant decrease compared to the normal group | sizes of the ovary and the uterus, negative control (VCD) (B6C3F1 female mice): significantly decreased | cell morphology, group treated only with VCD (CHO-K1 cells): apoptosis was observed | proform band of PARP, treated only with VCD (PARP and caspase-3): decreased | proform band of caspase-3, treated only with VCD (PARP and caspase-3): became pale

Reference: patent US10434128B2, “Composition comprising Ulmi cortex extracts for inhibiting ovotoxicity” (DONGGUK UNIVERSITY GYEONGJU CAMPUS INDUSTRY-ACADEMY …, priority 2017, dated 2019)
